{"source": "patent US20120070421A1", "about": "(priority 2009, published 2012)", "key": {"Plasmopara viticola": {"system": "Plasmopara viticola", "test": "Green house: fungicidal control of grape downy mildew, protective spray on grape cuttings", "format": "in vivo", "details": "single active, grape plants, sprayed 1 day before inoculation", "method": "The stock solution were prepared: a mixture of acetone and/or dimethylsulfoxide and the wetting agent/emulsifier Wettol, which is based on ethoxylated alkylphenoles, in a relation (volume) solvent-emulsifier of 99 to 1 was added to 25 mg of the compound to give a total of 10 ml. Water was then added to total volume of 100 ml. This stock solution was diluted with the described solvent-emulsifier-water mixture to the given concentration.\nThe visually determined percentages of infected leaf areas are converted into efficacies in % of the untreated control.\nThe efficacy (E) is calculated as follows using Abbot's formula: […]\nα corresponds to the fungicidal infection of the treated plants in % and β corresponds to the fungicidal infection of the untreated (control) plants in %\nAn efficacy of 0 means that the infection level of the treated plants corresponds to that of the untreated control plants; an efficacy of 100 means that the treated plants were not infected.\nThe expected efficacies of active compound combinations were determined using Colby's formula (Colby, S. R. “Calculating synergistic and antagonistic responses of herbicide combinations”, Weeds, 15, pp. 20-22, 1967) and compared with the observed efficacies.\nColby's formula: E=x+y−x·y/100\nE expected efficacy, expressed in % of the untreated control, when using the mixture of the active compounds A and B at the concentrations a and b x efficacy, expressed in % of the untreated control, when using the active compound A at the concentration a y efficacy, expressed in % of the untreated control, when using the active compound B at the concentration b.\nGrape cuttings were grown in pots to the 4 to 5 leaf stage. These plants were sprayed to run-off with an aqueous suspension, containing the concentration of active ingredient or their mixture mentioned in the table below. The plants were allowed to air-dry. […] Then the extent of fungal attack on the lower leaf surface was visually assessed as % diseased leaf area."}, "Pyricularia oryzae": {"system": "Pyricularia oryzae", "format": "cell-based", "details": "single active, 7 days after inoculation"}, "Phytophthora infestans": {"system": "Phytophthora infestans", "format": "cell-based", "details": "0.00025 ppm, single active, 7 days after inoculation"}}, "note": "Read-outs that look alike come from different tables or passages of the source."}
{"compound": "Cn1cc(C(=O)Nc2ccccc2-c2cc(F)c(F)c(F)c2)c(C(F)F)n1", "values": [{"measurement": "Observed efficacy", "setting": "Plasmopara viticola; 0.016 ppm", "value": 0, "unit": "%"}]}
{"compound": "Cc1cc(C(F)(F)F)nn1CC(=O)N1CCC(c2nc(C(=O)N(C)[C@@H]3CCCc4ccccc43)cs2)CC1", "note": "[2-{1-[2-(5-methyl-3-trifluoromethyl-pyrazol-1-yl)-acetyl]-piperid-4-yl}-thiazole-4-carboxylic acid methyl-(R)-1,2,3,4-tetrahydro-naphthalen-1-yl-amide]", "values": [{"measurement": "Observed efficacy", "setting": "Pyricularia oryzae; 0.063 ppm", "value": 1, "unit": "%"}, {"measurement": "Observed efficacy", "setting": "Pyricularia oryzae; 63 ppm", "value": 28, "unit": "%"}, {"measurement": "Observed efficacy", "setting": "Plasmopara viticola; 0.063 ppm", "value": 67, "unit": "%"}, {"measurement": "Observed efficacy", "setting": "Phytophthora infestans", "value": 0, "unit": "%"}]}
{"compound": "CCCCCCCCc1c(CC)nc2ncnn2c1N", "note": "[drawing 4]", "values": [{"measurement": "Observed efficacy", "setting": "Plasmopara viticola; 0.016 ppm", "value": 11, "unit": "%"}]}
{"compound": "CCCCCCCCc1c(CC)nc2ncnn2c1N", "note": "[drawing 13, reference compound]", "values": [{"measurement": "Observed efficacy", "setting": "Pyricularia oryzae; 4 ppm", "value": 10, "unit": "%"}]}
